The nature of test [1]: Direct 1H NMR titration, 1:1 binding model. The conditions noted are these: 20 mM NaH2PO4 buffered (pH 7.4) D2O. As to the method: A direct titration was performed between the host and guest. The concentration of the host was kept constant while varying the concentration of the guest and the change in chemical shift of a selected host signal was measured. The change in chemical shift as a function of guest concentration was fitted to a 1:1 binding model to determine the Ka. In some cases, the concentration of guest was fixed and host concentration was varied, depending on the availability of a suitable ^1H NMR peak whose chemical shift change could be easily monitored.
1:1 Binding Model for NMR

Test [2] relates to ketamine anesthesia. The test can be described thus: EEG power and mean arterial pressure during continuous ketamine infusion. The format is in vivo, rat. As to conditions: escalating phenylephrine infusion 4 to 10 μg/kg/min; n=3.

For the molecule `O=S(=O)(O)c1cc2c(O)c(c1)Cc1cc(S(=O)(=O)O)cc(c1O)Cc1cc(S(=O)(=O)O)cc(c1O)Cc1cc(S(=O)(=O)O)cc(c1O)C2` [4-sulfo calix[4]arene], the “Binding Constant with Host (Ka), morphine” value in test [1] is “(4.9±0.3)×10^4 M^−1”. Further, in test [1] (1:1 model), the “Binding Constant with Host (Ka), cocaine” value is “(4.3±1.5)×10^4 M^−1”; the “Binding Constant with Host (Ka), ketamine” value is recorded as ~10^5 M^−1; the “Binding Constant with Host (Ka), methamphetamine” value was “(3.8±0.6)×10^4 M^−1”; the “Binding Constant with Host (Ka), phencyclidine” value is “(5.0±0.6)×10^4 M^−1”. The “Binding Constant with Host (Ka), ketamine” value in test [1] (1:1 model, listed as 4-suldo calix[4]arene) is reported as ~10^5 M^−1.
Regarding `O=C1N2CN3C(=O)N4CN5C(=O)N6CN7C(=O)N8CN9C(=O)N%10CN%11C(=O)N%12CN%13C(=O)N%14CN1C1C2N2CN%15C(=O)N(CN%16C(=O)N(CN%17C(=O)N(CN%18C(=O)N(CN%19C(=O)N(CN%20C(=O)N(CN1C2=O)C%14C%13%20)C%12C%11%19)C%10C9%18)C8C7%17)C6C5%16)C4C3%15` (centres unmarked) [CB[7], cucurbit[7]uril], the “Binding Constant with Host (Ka), morphine” value in test [1] is <10^3 M^−1.
In the case of `CNC[C@H](O)c1cccc(O)c1` [phenylephrine], in test [2], the “effect on MAP and EEG power during steady state shallow ketamine anesthesia” value was “significant MAP increases without effects on EEG power”.
